# Test results taken from patent US20100047231A1, “Immuno-Stimulant Combination for Prophylaxis and Treatment of Hepatitis C” (priority 2005, published 2010).
# Key:
# Type in all cases: in vivo
# HHD mice [1] = test: Lythic activity of CTL (chromium release) of splenocytes from immunised HHD mice against peptide-loaded T2 target cells; settings: 100 μg NS3 + poly(I:C) + anti-CD40, two immunisations, sixty days after the second (FIG. 5B)
# Procedure: (§1) Groups of two mice were immunised via the i.p. route with 50 μg of anti-CD40. Four hours later, they were injected with 50 μg of poly(I:C) (i.v.) and different amounts of the antigens: NS3 protein or mixtures of NS3 with peptides (i.p.).
# (§2) In order to measure the CTL responses, the splenocytes coming from the immunised animals were incubated with peptides (10 μM) for 2 h at 37° C., washed twice and cultured on 24-well plates with a confluence of 7.5×10^6 cells/well. In experiments conducted for measuring the recognition of T1/HCVcon cells, 7.5×10^6 splenocytes of HHD mice were cultured with 7.5×10^5 T1/HCVcon cells previously treated with Mitomycin C (Sigma). In all cases, two days later, 2.5 U/ml of IL-2 (Boehringer-Mannheim GmbH, Germany) was added to the wells and 5 days later the cells were recovered in order to carry out chromium release assays.
# (§3) The lythic activity was measured by incubating different quantities of effector cells for 4 h with 3000 T2 target cells previously loaded with 51Cr, with and without peptide (target). […]
# (§4) The specific lysis percentage was calculated according to the formula: […]
# (§5) where the spontaneous lysis (measured as cpmspontaneous) corresponds to target cells incubated in the absence of effector cells, and the maximum lysis (cpmmaximum) is obtained by incubating target cells with 5% Tritonx100.
# HHD mice [2] = test: IFN-γ production (ELISA) by splenocytes from immunised HHD mice stimulated with peptides or NS3; settings: 100 μg NS3 + poly(I:C) + anti-CD40, two immunisations, sixty days after the second
# Procedure: as §1
# Splenic cells were resuspended in complete medium and plated at 8×10^5 cells/well in 0.2 ml on 96-well plates with U-shaped bottom, in the absence or presence of peptides or of the recombinant NS3 protein of the HCV.
# Two days afterwards, the supernatants were collected for measuring the presence of IFN-γ by means of ELISA (BD-Pharmingen), following the manufacturer's instructions.
# T1/HCVcon cells = test: Lythic activity of splenocytes from immunised HHD mice against T1/HCVcon cells (chromium release); settings: 100 μg NS3 + poly(I:C) + anti-CD40, six days after immunisation, splenocytes stimulated five days with T1/HCVcon cells and IL-2 (FIG. 4)
# Procedure: as §1, §2, §3, §4, §5
substance,measurement,setting,value
"NS3 protein (SEQ. ID. NO: 2): Recombinant polypeptide with 635-amino-acid complete HCV NS3 sequence and His tail, expressed in E. coli; given with poly(I:C) and anti-CD40","Lasting CD8+ response, lythic activity against target cells loaded with peptide 1073",HHD mice [1],capable of lysing target cells pulsed with the peptide 1073
same,"Lasting CD4+ response, IFN-γ production on stimulation with NS3 protein","HHD mice [2]; NS3 1 μg/ml, 48 h (FIG. 5C)",potent and lasting CD4+ responses
same,"Lasting CD8+ response, production of IFN-γ on stimulation with peptide 1073","HHD mice [2]; peptide 1073 10 μM, 48 h (FIG. 5A)",capable of producing large amounts of IFN-γ
same,Lysis of T1/HCVcon cells versus T1 control cells,T1/HCVcon cells,"greater capacity to lyse T1 cells, which expressed proteins of the HCV"
